The values that follow are results of earlier work, collected in US20220211602A1, “INCREASING THE STABILITY OF AGENTS FOR TREATING KERATIN MATERIAL” (Henkel AG & Co. KGaA, priority 2019, published 2022).

Each structure is given as a SMILES string.

The conditions of the series: for solubility in water: 25° C.

Consider `O=C([O-])c1c(Cl)c(Cl)c(Cl)c(Cl)c1-c1c2c(Br)cc(=O)c(Br)c-2oc2c(Br)c(O)cc(Br)c12.O=C([O-])c1c(Cl)c(Cl)c(Cl)c(Cl)c1-c1c2c(Br)cc(=O)c(Br)c-2oc2c(Br)c(O)cc(Br)c12.[Na+].[Na+]` [Acid Red 92, disodium salt of 3,4,5,6-tetrachloro-2-(1,4,5,8-tetrabromo-6-hydroxy-3-oxoxanthen-9-yl)benzoic acid], for which the solubility in water result was “greater than 10 g/L”.

Take `O=C([O-])C1=NN(c2ccc(S(=O)(=O)[O-])cc2)C(=O)C1N=Nc1ccc(S(=O)(=O)[O-])cc1.[Na+].[Na+].[Na+]` (stereo not shown) [Acid Yellow 23, trisodium salt of4,5-dihydro-5-oxo-1-(4-sulfophenyl)-4-((4-sulfophenyl)azo)-1H-pyrazole-3-carboxylic acid]: for the setting “at 25° C.”, the “solubility in water (in words)” value is listed as “highly soluble”.

For `Nc1cc(S(=O)(=O)[O-])cc2cc(S(=O)(=O)[O-])c(N=Nc3ccccc3)c(O)c12.[Na+].[Na+]` [Acid Red 33, disodium salt of 5-amino-4-hydroxy-3-(phenylazo)-naphthalene-2,7-disulphonate], the solubility in water was 2.5 g/L.

In the case of `O=S(=O)([O-])c1ccc(N=Nc2c(O)ccc3ccccc23)cc1.[Na+]` [Acid Orange 7, sodium salt of 4-[(2-hydroxy-1-naphthyDazo]benzene sulphonate], the solubility in water result was “more than 7 g/L”.
